# Source: the METLIN SMRT retention time set (Domingo-Almenara et al. 2019)
# Experiment: gradient 5% acetonitrile 3 min, to 50% in 2 min, to 85% in 15 min, held 3 min, 100 µL/min
# Settings: column: Zorbax Extend-C18 2.1 x 50 mm; eluents: water / acetonitrile, 0.1% formic acid
# Summary of the method: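 Standards, all pure, were combined into mixtures of ~100 molecules and run at 100 μL/min on a Zorbax Extend-C18 column (2.1 × 50 mm, 1.8 μm) with water and acetonitrile, each containing 0.1% formic acid. A coupled quadrupole time-of-flight mass spectrometer operated in positive and negative ionization mode. Retention time values come from computationally picked adduct peaks, each inspected manually.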
row,Compound,RP-LC retention time [s]
1,CC(CCc1ccccc1)NC(=O)C1CN(C(=O)c2cccs2)C1 (configuration not stated),727
2,CS(=O)(=O)N1CCCc2cc(C(=O)NCCCn3ccnc3)ccc21,597
3,O=C(CN1CCc2[nH]c3c(F)c(Cl)ccc3c(=O)c2C1)Nc1cc(F)cc(F)c1,699
4,Cc1sc(C)c(S(=O)(=O)NCc2ccccc2Cl)c1-c1cc(C(F)(F)F)on1,653
5,COc1ccc(NC(=O)N2CCC(c3nc(C(=O)N(C)C)c(C)o3)CC2)c(OC)c1,635
6,COC(=O)c1ccc(NC(=O)Cn2c(=O)c3cc(C)nn3c3ncccc32)cc1,700
7,CCn1ccc(NC(=O)NC2CCCC2)n1,730
8,Cc1c(C(=O)NCCOc2cccc(C(F)(F)F)c2)cccc1[N+](=O)[O-],893
9,COc1ccc(C(=O)N2C[C@@H](Oc3cccnc3)C[C@H]2C(N)=O)c(OC)n1,572
10,Cc1cc(C)c(C)c(S(=O)(=O)N2CC(=O)N(CC3CC3)CC23CCCC3)c1C,1170
11,COc1ccccc1OCC1c2ccsc2CCN1C(=O)CN(CC1CC1)C(=O)C(C)C (configuration not stated),947
12,O=C(NC1CCCCC1)C1CCN(S(=O)(=O)c2cc(C(=O)N3CCOCC3)cs2)CC1,710
13,Cc1cc(C)n(Cc2ccc(C(=O)N3CCN(c4ccc(=O)n(-c5ccccc5)n4)CC3)o2)n1,706
14,CSc1ncccc1C(=O)Nc1ccc(OCc2nnc(-c3ccccc3)o2)cc1,884
15,CC(=O)Nc1cccc(N2CC(C(=O)NCc3cccc(Br)c3)CC2=O)c1 (configuration not stated),703
16,Cc1ccc(CNC(=O)C2(C)CN(S(C)(=O)=O)CC(=O)N2Cc2ccc(N(C)C)cc2)cc1 (configuration not stated),668
17,CCn1cc(S(=O)(=O)N2C[C@H]3CN(S(=O)(=O)c4cccc(C)c4)C[C@@H](C2)O3)cn1,833
18,O=C(NCCCN1CCCC1)C1CCN(c2nnc3ccc(Cl)cn23)CC1,556
19,CCCS(=O)(=O)c1nc2ccc(NS(=O)(=O)c3ccccc3F)cc2s1,882
20,O=C(Nc1ccc(S(=O)(=O)N2CCCCC2c2cccnc2)cc1)c1ccccc1F (configuration not stated),617
21,Cn1cc(-c2nc(C(=O)Nc3cc(F)ccc3F)cs2)c2cccnc21,1150
22,CCOc1ccc(-n2nnc(-c3nc(-c4cccc(OC)c4)cs3)c2N)cc1,1130

row,Compound,RP-LC retention time [s]
1,CC(=O)Nc1nsc(N2CCC(C(=O)N3CCN(c4ccc(C)cc4)CC3)CC2)n1,675
2,CCOc1ccc(Nc2c(-c3ccc(N(C)C)cc3)nc3cnccn23)cc1,813
3,O=C(NC1CC1)C1CCN(S(=O)(=O)c2ccc3[nH]c4c(c3c2)CCCCC4)CC1,862
4,CC(C)C(NC(=O)c1ccco1)c1nc(-c2ccc3c(c2)ncn3C)no1 (configuration not stated),650
5,CCc1ccccc1NC(=O)CSc1nc2nc(C)cc(C)n2n1,732
6,O=C(NCCC1=CCCCC1)C1CCN(c2ncccc2S(=O)(=O)N2CCCCC2)CC1,1080
7,Cc1ccc(NC(=O)C(=O)NCC(c2ccc3c(c2)OCO3)N2CCOCC2)c(C)c1 (configuration not stated),693
8,CCS(=O)(=O)N1CC(=O)N(c2ccc(C)c(C)c2)C(C)(C(=O)NC2CCCCCC2)C1 (configuration not stated),979
9,CN(C)c1ccc(CNC(=O)c2cc3n(n2)CC(C)(C(=O)NC2CCCCCC2)N(C)C3=O)cc1 (configuration not stated),649
10,Cc1noc(C2CN(CC(=O)N3CCN(c4ccc(Cl)cc4)CC3)C2)n1,590
11,CCCc1noc(-c2ccnc(-n3cnc(C(=O)NC(C)C)c3)c2)n1,849
12,O=C(c1cnccn1)N1CCN(c2ccc(-n3cccn3)nn2)CC1,580
13,O=C(CN1C(=O)CCCc2ccccc21)N1CCN(c2ccc(Cl)cc2)CC1,944
14,Cc1ccn2cc(-c3ccc(NC(=O)c4ccco4)cc3)nc2n1,596
15,CC(CCc1ccccc1)NC(=O)Cc1nnc(-c2ccncc2)o1 (configuration not stated),744
16,Cc1ccc(C)c(Cn2nc3ccc(S(=O)(=O)N4CCCCCC4)cn3c2=O)c1,1090
17,Cc1ccc(Nc2nc(C)cc3nn(CC(=O)Nc4ccc(N(C)C)cc4)c(=O)n23)cc1,800
18,CCN1CCn2cc(S(=O)(=O)Nc3ccccc3Cl)cc2C1=O,706
19,Cc1nn(C)cc1CN(C)C(=O)NC1CCCCC1,611
20,CCCc1c(OCCCOc2ccc(OCC(=O)O)cc2)ccc(C(C)=O)c1O,1150
21,COC1CN(c2cccc(F)c2)C12CCN(Cc1cccc(F)c1)CC2 (configuration not stated),761
22,O=S(=O)(c1ccccc1Br)N1CCCC1c1nc(-c2ccc(F)cc2)no1 (configuration not stated),1110

row,Compound,RP-LC retention time [s]
1,O=C1CCCC(=O)N1CCS(=O)(=O)N1CCN(c2cccc(Cl)c2Cl)CC1,887
2,COc1ccc(NS(=O)(=O)c2ccc3c(c2)CCCC(=O)N3)cc1Cl,738
3,O=C(O)Cn1nnc(-c2cc(N3CCC(Oc4cc(F)ccc4Br)CC3)no2)n1,1000
4,O=c1c2sccc2n(Cc2nc(-c3ccc(Cl)c(F)c3)no2)c(=O)n1-c1ccc(F)cc1,1080
5,Cc1nc2ccc(Cl)cn2c(=O)c1NC(=O)Cc1ccc(-c2ccccc2)cc1,775
6,CNC(=O)CCc1nc2ccccc2n(CC(=O)NCCc2ccc(S(N)(=O)=O)cc2)c1=O,612
7,Cc1cc(OCC(=O)N[C@@H](CC(C)C)C(=O)O)c2c3c(c(=O)oc2c1)CCCC3,894
8,CCC(NC(=O)c1ccc2c(c1)nc1n2CCN(C2CCCCC2)C1=O)c1cccs1 (configuration not stated),851
9,CCN1C(=O)c2c(C(=O)NCCCc3ccccc3)ncn2CC1(C)C(=O)NC1CCCC1 (configuration not stated),822
10,CCS(=O)(=O)Nc1ccc(C2(C(=O)NCC(C)C)CCCCC2)cc1,879
11,COc1ccc(-c2noc(-c3nc(C4CC4)no3)n2)cc1,1090
12,Cc1nc2cc(N3CC(C(=O)Nc4ccc(F)cc4C)CC3=O)ccc2o1 (configuration not stated),718
13,Cc1ccc(-n2c(N3CCCC(C(=O)NCCc4cccs4)C3)nc3ccsc3c2=O)cc1 (configuration not stated),913
14,O=C(NC1CCCN(c2cc(-c3ccncc3)[nH]n2)C1)c1ccc(F)cc1 (configuration not stated),599
15,COCCNC(=O)Nc1nnc(-c2ccccc2Cl)o1,647
16,Cc1nc(C)c(C(=O)N2CC(F)(F)C[C@H]2COc2ccc3c(c2)CCC3)s1,1080
17,Cc1cc(C)cc(NC(=O)Cn2nc3c(N(C)C4CCCCC4)nccn3c2=O)c1,846
18,Cc1ccc(-n2c(=O)c3sccc3n(Cc3nc(-c4ccc(C(F)(F)F)cc4)no3)c2=O)cc1,1190
19,CCC(Sc1ncnc2c1cnn2-c1ccc(F)cc1)C(=O)OC (configuration not stated),1170
20,COc1ccc(CNC(=O)Cn2c(=O)c3cc(C4CC4)nn3c3ncccc32)cc1,742
21,Cc1ccc(CCNC(=O)c2cc3sccc3n2Cc2ccc(F)cc2)cc1,702
22,Cc1ccc2c(Nc3ccc4c(c3)OCO4)c(C(=O)N3CCCC3)cnc2n1,591

row,Compound,RP-LC retention time [s]
1,COc1ccc2c(c1)C1(CCN(C(=O)Nc3ccccc3F)C1)C(=O)N2 (configuration not stated),701
2,Cc1cc2nn(CC(=O)N3CCCc4ccccc43)c(=O)n2c(Nc2ccc(F)cc2)n1,1060
3,CCOCCCNC(=O)CCc1nnc2c3cc(-c4ccc(C)c(C)c4)nn3ccn12,753
4,O=C1CN(S(=O)(=O)c2ccccc2C(F)(F)F)CC2(CCCCC2)N1C1CCCC1,1230
5,Cc1cccc(NC(=O)c2c(O)c3cccnc3n(-c3ccccc3)c2=O)c1C,1300
6,CC(C)CN1CCN(C(=O)CCC2CCCN(c3cc(NC4CC4)ncn3)C2)CC1 (configuration not stated),547
7,Cc1ccc2nc(-c3ccccc3)c(Nc3ccc(Cl)cc3)n2c1,755
8,O=C(CCSc1nnc2ccc3ccccc3n12)Nc1ccc(F)cc1,878
9,Cc1ccc(C)c(NC(=O)N2CCc3nc(-c4ccccc4)ncc3C2)c1,924
10,CCCNC(=O)Cc1nnc(-c2ccc(C)cc2)o1,710
11,Cc1ccc(NC(=O)N2C[C@H](c3nc(-c4cccnc4)no3)[C@@H](C)C2)cc1,820
12,CCOc1ccc(NC(=O)Cn2c(CC)nc3c(c2=O)CN(Cc2ccccc2)CC3)cc1,666
13,CCc1nc2ccccc2c(=O)n1Cc1noc(-c2ccc(C#N)cc2)n1,919
14,O=C(COc1ccc(Cl)cc1Cl)NC1CC(=O)N(C2CC2)C1 (configuration not stated),701
15,O=C(Cn1c(=O)c2cc(-c3cccs3)nn2c2ncccc21)Nc1ccccc1F,839
16,O=C(O)c1nnn(Cc2ccccc2F)c1-c1cccnc1,633
17,COc1ccc(N2CC(NC(=O)NCCC3=CCCCC3)CC2=O)cc1 (configuration not stated),731
18,CCN1CCN(Cc2nc(-c3ccc(N4CCCC(C)C4)nc3)no2)CC1 (configuration not stated),610
19,CN(C)c1ccc2c(c1)CN(C(=O)C1COc3ccccc3O1)CCO2 (configuration not stated),679
20,CCNC(=O)c1ccc(-n2c(C)ccc2C)nc1,566
21,O=C1CC(C(=O)N2CCN(Cc3ccccc3)CC2)CN1CCc1c[nH]c2ccc(F)cc12 (configuration not stated),634
